Columns and labels:
[1] = target: T1, UGT2B15 (Homo sapiens, UniProt P54855); test: Inhibition of UGT2B15 (4-methylumbelliferyl glucuronidation) in recombinant human UGT2B15 supersomes; assay type: in vitro ADME; settings: recombinant UGT2B15 supersomes, 250 μM 4-methylumbelliferone, mean ± SD of triplicate; read-out: IC50 towards UGT2B15
T1 construct: purchased Corning Life Sciences
T1 sequence (P54855 24-530): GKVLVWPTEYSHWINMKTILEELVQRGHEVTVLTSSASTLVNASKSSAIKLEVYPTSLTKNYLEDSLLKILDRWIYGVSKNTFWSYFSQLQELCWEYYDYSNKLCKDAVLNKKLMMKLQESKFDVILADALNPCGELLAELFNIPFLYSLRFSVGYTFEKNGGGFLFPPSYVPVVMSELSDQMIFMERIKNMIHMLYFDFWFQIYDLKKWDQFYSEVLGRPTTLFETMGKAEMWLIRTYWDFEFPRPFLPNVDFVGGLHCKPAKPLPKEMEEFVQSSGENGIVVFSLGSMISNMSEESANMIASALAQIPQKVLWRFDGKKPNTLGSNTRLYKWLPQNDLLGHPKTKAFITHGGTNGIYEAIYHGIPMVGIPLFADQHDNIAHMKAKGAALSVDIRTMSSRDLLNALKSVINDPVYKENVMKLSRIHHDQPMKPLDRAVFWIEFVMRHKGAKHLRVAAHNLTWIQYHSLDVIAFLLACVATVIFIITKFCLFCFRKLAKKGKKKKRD
Experimental: Although S-oxazepam is a typical substrate of UGT2B15 of human liver microsomes, authentic S-oxazepam and the corresponding glucuronide are not commercially […]. Thus, the inhibition of AS, βC, CA, LU, and ZE on the UGT2B15 activity was assessed using 4-methylumbelliferone as the nonspecific probe substrate for all UGTs except UGT1A4 [34] in recombinant human UGT2B15 supersomes.
The reaction was initiated by addition of 10 µL 5 mM UDPGA (to 100 µL total volume) followed by incubation for 120 min at 37 °C in a shaking water bath. Reactions were stopped by addition of 50 µL of ice-cold acetonitrile containing chlorpropamide (300 ng/mL) as an internal standard, and they were chilled and centrifuged (13,000 g, 15 min, 4 °C). An aliquot of 5 μL of supernatant was injected into an LC-MS/MS system. Additionally, identical parallel incubation samples containing a known UGT2B15 inhibitor amitriptyine (0–200 μM) was included as a positive control for UGT2B15.
(§1) For visual inspection, data were presented as Dixon plots.

[2] = target: T2, UGT1A3 (Homo sapiens, UniProt P35503)
T2 sequence (P35503 29-534): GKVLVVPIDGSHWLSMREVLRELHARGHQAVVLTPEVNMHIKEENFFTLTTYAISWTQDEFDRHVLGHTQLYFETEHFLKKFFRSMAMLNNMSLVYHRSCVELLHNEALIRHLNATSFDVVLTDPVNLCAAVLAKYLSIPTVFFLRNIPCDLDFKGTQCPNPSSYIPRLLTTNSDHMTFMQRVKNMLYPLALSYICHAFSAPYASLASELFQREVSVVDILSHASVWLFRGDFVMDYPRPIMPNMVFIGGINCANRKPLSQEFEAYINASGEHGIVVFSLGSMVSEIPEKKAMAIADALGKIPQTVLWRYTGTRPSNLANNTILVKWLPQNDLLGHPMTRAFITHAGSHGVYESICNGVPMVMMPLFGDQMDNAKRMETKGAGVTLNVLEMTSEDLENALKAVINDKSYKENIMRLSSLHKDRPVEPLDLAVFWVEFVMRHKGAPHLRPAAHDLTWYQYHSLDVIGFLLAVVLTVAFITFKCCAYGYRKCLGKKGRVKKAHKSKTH
Experimental: (§2) The formation activities of β-estradiol-3-glucuronide, chenodeoxycholic acid 24-acyl-β-D-glucuronide, trifluoperazine-N-glucuronide, imipramine-N-β-D-glucuronide, serotonin-O-glucuronide, propofol-O-glucuronide, and zidovudine-5′-glucuronide were determined to probe the activities of UGT1A1, UGT1A3, UGT1A4, UGT1A6, UGT1A9 and UGT2B7, respectively, in human liver microsomes.
(§3) In brief, the 90-µL incubation mixture, including pooled human liver microsomes (final concentration 0.25 mg/mL), 100 mM Tris buffer, 25 µg/mL alamethicin, 5 mM MgCl2, the UGT-selective substrates, and five xanthophylls (0–50 μM), were pre-incubated for 30 min on ice to allow formation of alamethicin pores. Reac2345tions were initiated by the addition of 10 μL of UDPGA (5 mM) to a final reaction volume of 0.1 mL and incubated at 37 °C for 60 min (except 30 min for UGT1A9) in a shaking water bath. After incubation, each reaction was stopped by adding 50 μL of ice-cold acetonitrile containing chlorpropamide (300 ng/mL) or theophylline (30 μg/mL or 300 μg/mL) as an internal standard. The mixtures were then centrifuged (13,000 g for 15 min at 4 °C) and 5-µL aliquots of the supernatants were injected into an LC-MS/MS system. […] All incubations were performed in triplicate, and mean values were used for analysis.
(§4) Chromatographic separations were performed on an Agilent Poroshell 120 EC-C18 column (50 mm × 4.6-mm i.d.; 2.7-μm particle size; Agilent Technologies) to quantify β-estradiol-3-glucuronide (UGT1A1), chenodeoxycholic acid 24-acyl-β-D-glucuronide (UGT1A3), trifluoperazine-N-glucuronide (UGT1A4), propofol-O-glucuronide (UGT1A9), zidovudine-5′-glucuronide (UGT2B7), and 4-methylumbelliferyl glucuronide (UGT2B15); an Agilent Poroshell 120 EC-C18 column (100 × 4.6-mm i.d.; 2.7-mm particle size) was used for quantification of serotonin-O-glucuronide (UGT1A6). The isocratic mobile phase consisted of distilled water (A) and acetonitrile containing 0.1% formic acid (B) at a ratio (v/v) of 10:90 for chenodeoxycholic acid 24-acyl-β-D-glucuronide, 30:70 for trifluoperazine-N-glucuronide and zidovudine-5′-glucuronide, 50:50 for propofol-O-glucuronide and 4-methylumbelliferyl glucuronide, 65:35 for β-estradiol-3-glucuronide, and 90:10 for serotonin-O-glucuronide, at a flow rate of 0.5 mL/min. The total run time was 4.0 min per sample for each metabolite, with the exception of serotonin-O-glucuronide (6.0 min). Peak areas for all of the analytes were automatically integrated using Analyst software (version 1.5.2, Applied Biosystems, Foster City, CA, USA).
(§5) The IC50 values were calculated via nonlinear least-squares regression analysis from plots of the logarithms of inhibitor concentration vs. the residual percentages of activities after inhibition, using WinNonlin (ver. 4.0; Pharsight, Mountain View, CA, USA).

[3] = target: T3, UGT2B7 (Homo sapiens, UniProt P16662); test: Inhibition of UGT2B7 (zidovudine-5′-glucuronidation) in human liver microsomes
T3 sequence (P16662 24-529): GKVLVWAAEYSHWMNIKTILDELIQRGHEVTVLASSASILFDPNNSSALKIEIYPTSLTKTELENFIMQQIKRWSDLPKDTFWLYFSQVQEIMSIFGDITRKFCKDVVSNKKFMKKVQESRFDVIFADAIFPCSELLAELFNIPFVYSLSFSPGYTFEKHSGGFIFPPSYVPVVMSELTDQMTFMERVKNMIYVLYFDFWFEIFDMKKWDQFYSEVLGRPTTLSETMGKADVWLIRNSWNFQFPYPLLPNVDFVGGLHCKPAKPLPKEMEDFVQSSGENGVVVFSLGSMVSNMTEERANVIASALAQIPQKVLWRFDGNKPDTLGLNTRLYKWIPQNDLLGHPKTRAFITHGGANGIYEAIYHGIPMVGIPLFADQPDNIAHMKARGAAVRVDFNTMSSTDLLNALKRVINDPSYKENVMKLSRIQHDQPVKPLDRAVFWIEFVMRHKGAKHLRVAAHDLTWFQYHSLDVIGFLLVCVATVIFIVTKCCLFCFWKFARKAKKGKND
Experimental: as §2, §3, §4, §5

[4] = target: T4, UGT1A4 (Homo sapiens, UniProt P22310); test: Inhibition of UGT1A4 (trifluoperazine-N-glucuronidation) in human liver microsomes; assay type: in vitro ADME; settings: 4 μM trifluoperazine, mean ± SD of triplicate, read-out: IC50 towards UGT1A4
T4 construct: pooled human liver microsomes (final concentration 0.25 mg/mL); tissue Corning Life Sciences; host or cells: pooled human liver microsomes, 150 donors
T4 sequence (P22310 29-534): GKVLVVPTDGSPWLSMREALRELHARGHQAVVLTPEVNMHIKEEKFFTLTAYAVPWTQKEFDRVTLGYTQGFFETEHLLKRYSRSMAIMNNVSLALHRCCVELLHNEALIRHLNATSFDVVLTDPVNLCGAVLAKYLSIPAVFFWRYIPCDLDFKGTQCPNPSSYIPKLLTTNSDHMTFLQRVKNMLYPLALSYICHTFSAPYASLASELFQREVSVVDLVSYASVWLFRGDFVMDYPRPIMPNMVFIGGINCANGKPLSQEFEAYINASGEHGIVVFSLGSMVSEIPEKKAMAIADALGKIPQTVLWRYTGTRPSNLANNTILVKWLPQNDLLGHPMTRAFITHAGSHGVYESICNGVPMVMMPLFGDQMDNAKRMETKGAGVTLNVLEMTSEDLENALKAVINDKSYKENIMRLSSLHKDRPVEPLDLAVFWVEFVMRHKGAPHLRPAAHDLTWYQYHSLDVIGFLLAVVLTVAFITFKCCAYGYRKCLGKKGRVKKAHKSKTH
Experimental: as §2, §3, §4, §5

[5] = target: T5, UGT1A9 (Homo sapiens, UniProt O60656); test: Inhibition of UGT1A9 (propofol-O-glucuronidation) in human liver microsomes
T5 sequence (O60656 26-530): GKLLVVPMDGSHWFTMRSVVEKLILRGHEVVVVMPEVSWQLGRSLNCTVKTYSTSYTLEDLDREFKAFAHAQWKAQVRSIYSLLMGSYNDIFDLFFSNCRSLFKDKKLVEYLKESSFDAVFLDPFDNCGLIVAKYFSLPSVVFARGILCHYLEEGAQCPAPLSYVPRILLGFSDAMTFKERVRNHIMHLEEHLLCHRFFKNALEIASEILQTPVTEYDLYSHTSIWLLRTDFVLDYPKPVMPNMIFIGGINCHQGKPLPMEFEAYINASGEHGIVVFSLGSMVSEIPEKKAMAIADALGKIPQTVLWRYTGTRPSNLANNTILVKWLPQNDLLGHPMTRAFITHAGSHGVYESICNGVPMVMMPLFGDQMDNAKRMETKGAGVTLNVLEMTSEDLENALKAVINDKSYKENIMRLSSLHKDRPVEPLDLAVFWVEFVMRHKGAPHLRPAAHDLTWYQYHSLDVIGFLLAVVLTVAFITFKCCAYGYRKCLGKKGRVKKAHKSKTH
Experimental: as §2, §3, §4, §5

[6] = target: T6, UGT1A1 (Homo sapiens, UniProt P22309); test: Ki determination on UGT1A1 activity (β-estradiol-3-glucuronidation) in human liver microsomes; settings: Dixon plots / nonlinear regression
T6 sequence (P22309 26-533): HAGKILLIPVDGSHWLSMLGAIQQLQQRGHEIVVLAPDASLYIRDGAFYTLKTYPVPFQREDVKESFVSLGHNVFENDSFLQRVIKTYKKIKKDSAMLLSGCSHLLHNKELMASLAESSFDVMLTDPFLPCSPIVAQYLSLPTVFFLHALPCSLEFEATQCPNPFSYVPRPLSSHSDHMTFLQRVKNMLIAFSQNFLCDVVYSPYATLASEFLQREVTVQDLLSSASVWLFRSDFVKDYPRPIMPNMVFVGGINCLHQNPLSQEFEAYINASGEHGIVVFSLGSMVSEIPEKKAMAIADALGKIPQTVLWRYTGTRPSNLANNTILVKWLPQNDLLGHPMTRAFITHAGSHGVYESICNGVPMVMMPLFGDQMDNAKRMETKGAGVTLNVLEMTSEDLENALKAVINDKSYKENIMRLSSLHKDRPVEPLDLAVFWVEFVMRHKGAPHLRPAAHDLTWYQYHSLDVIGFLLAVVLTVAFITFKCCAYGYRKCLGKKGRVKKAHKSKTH
Experimental: Based on the lowest IC50 value, the inhibitor constant (Ki) values of the βC for UGT1A1 were determined. […] All incubations were performed in triplicate, and the mean values were used for the analysis. Other procedures were similar to those of the reversible inhibition studies.
as §1

CN(C)CCC=C1c2ccccc2CCc2ccccc21 [Amitriptyline, amitriptyline, reference compound]
IC50 [1]: 69.4 ± 10.6 µM

COc1cc2c(c(OC)c1OC)-c1c(cc(OC)c(OC)c1OC)C[C@H](C)[C@H](C)C2 [Deoxyschizandrin, deoxyschizandrin]
IC50 [2]: 5.17 ± 0.7 µM

O=C1Nc2ccc(Cl)cc2[C@@](C#CC2CC2)(C(F)(F)F)O1 [Efavirenz, efavirenz, reference compound]
IC50 [3]: 37.8 ± 2.37 µM

C[C@@H]1CC[C@@]2(OC1)O[C@H]1C[C@H]3[C@@H]4CC[C@H]5C[C@@H](O)CC[C@]5(C)[C@H]4CC(=O)[C@]3(C)[C@H]1[C@@H]2C [Hecogenin, hecogenin, reference compound]
IC50 [4]: 8.07 ± 2.6 µM

O=C(O)c1cccnc1Nc1cccc(C(F)(F)F)c1 [Niflumic acid, niflumic acid, reference compound]
IC50 [5]: 0.39 ± 0.0256 µM

Cc1cn(-c2cc(NC(=O)c3ccc(C)c(Nc4nccc(-c5cccnc5)n4)c3)cc(C(F)(F)F)c2)cn1 [Nilotinib, nilotinib, reference compound]
Mode of inhibition of UGT1A1 [6]: competitive inhibition
